Data on four compounds can be found in patent publication US6326139A (priority 1997, dated 2001).

As a reminder, the IC50 is the concentration that gives 50% inhibition.

For data set [1] the following is noted: in vivo; cited from earlier work.
In the next data set the target is T1, DIP-BuChE (Homo sapiens, UniProt P06276).
T1 construct: made in house; host or cells: Xenopus oocytes (microinjected in vitro transcribed mRNA)
As to the kind of experiment: Reactivation by PAM of DFP-inhibited enzyme. In kind it is biochemical. The procedure:
(§1) and 1 μM DFP. The pseudo-first order rate constant for reactivation, […]

Data set [2] relates to Chimera of human AChE and BuChE. The data set can be described thus: Reactivation by PAM of DFP-inhibited enzyme. In kind it is biochemical. The protocol:
as §1

For a further data set, the target named is BuChE L^286 K (Homo sapiens, UniProt P06276, L314K). As to the kind of experiment: Reactivation by PAM of DFP-inhibited enzyme. Type of data set: biochemical. The procedure:
as §1

A further data set has as its system BuChE F^329 D. As to the kind of experiment: Reactivation by PAM of DFP-inhibited enzyme. Type of data set: biochemical, human. The conditions noted are these: 1 mM PAM; pseudo-first order. The protocol:
as §1

The next data set has as its system BuChE F^329 Q. As to the kind of experiment: Reactivation by PAM of DFP-inhibited enzyme. Type of data set: biochemical, human. The conditions noted are these: 1 mM PAM; pseudo-first order. The procedure: as §1
Data set [3] has as its system BuChE D^70 G + Y^114 H + S^425 P. The data set can be described thus: Reactivation by PAM of DFP-inhibited enzyme. Type of data set: biochemical, human. The procedure:
as §1

The next data set relates to BuChE L^286 D. As to the kind of experiment: Reactivation by PAM of DFP-inhibited enzyme. In kind it is biochemical, human. Conditions: 1 mM PAM; pseudo-first order. The protocol: as §1
The next data set deals with BuChE S^425 P. The data set can be described thus: Reactivation by PAM of DFP-inhibited enzyme. In kind it is biochemical, human. The conditions noted are these: 1 mM PAM; pseudo-first order. The procedure: as §1
In a further data set the test system is BuChE F^329 R. As to the kind of experiment: Reactivation by PAM of DFP-inhibited enzyme. The conditions noted are these: 1 mM PAM; pseudo-first order. In kind it is biochemical, human. The protocol:
as §1

In the next data set the test system is BuChE D^70 G + Y^114 H. The data set can be described thus: Reactivation by PAM of DFP-inhibited enzyme. Type of data set: biochemical, human. Conditions: 1 mM PAM; pseudo-first order. The protocol:
as §1

A further data set deals with BuChE L^286 R. The data set can be described thus: Reactivation by PAM of DFP-inhibited enzyme. Type of data set: biochemical, human. Conditions: 1 mM PAM; pseudo-first order. The procedure:
as §1

The next data set relates to BuChE F^329 C. As to the kind of experiment: Reactivation by PAM of DFP-inhibited enzyme. In kind it is biochemical, human. The conditions noted are these: 1 mM PAM; pseudo-first order. The procedure:
as §1

The subject of another data set is BuChE L^286 Q. The data set can be described thus: Reactivation by PAM of DFP-inhibited enzyme. Type of data set: biochemical, human. The conditions noted are these: 1 mM PAM; pseudo-first order. The protocol: as §1
For a further data set, the system named is BuChE D^70 G. As to the kind of experiment: Reactivation by PAM of DFP-inhibited enzyme. Type of data set: biochemical, human. The procedure:
as §1

A further data set relates to BuChE D^70 G + S^425 P. As to the kind of experiment: Reactivation by PAM of DFP-inhibited enzyme. In kind it is biochemical, human. Conditions: 1 mM PAM; pseudo-first order. The procedure: as §1
The subject of data set [4] is D^70 G BuChE in tandem with one or two additional natural mutations. As to the kind of experiment: Reactivation by 2-PAM of DFP-inactivated enzyme. In kind it is biochemical, human.
Protocol: Single-step enrichment for AChE or BuChE on immobilized antibody: Monoclonal mouse anti-human serum BuChE (53-4) or anti-human ACHE (101-1) antibodies (Liao et al., 1993), were adsorbed to microliter plates (Nunc, Roskilde, Denmark) at 0.5 pg/ml in 0.1 M carbonate buffer, pH 9.6, for at least four hours at room temperature. Plates were then washed three times in PBS-T buffer (144 mM NaCl, 20 mM Na phosphate, pH 7.4, 0.05% Tween-20). Free binding sites on the well surface of the microliter plate were blocked with PBS-T for one hour at 37° C. […] Microinjected oocyte homogenates containing the enzyme were then added at a dilution of 1:20 in PBS-T or at a concentration of 100 mIU/ml in PBS-T for at least 3 hours at room temperature with agitation. Plates were washed three times with PBS-T before use. Inactivation was performed at pH 7.4 in order to facilitate comparison with similar studies in the literature.
A further data set deals with AChE (E6) (Homo sapiens, UniProt P22303). The procedure: (§2) Single-step enrichment for AChE or BuChE on immobilized antibody: Monoclonal mouse anti-human serum BuChE (53-4) or anti-human ACHE (101-1) antibodies (Liao et al., 1993), were adsorbed to microliter plates (Nunc, Roskilde, Denmark) at […] in 0.1 M carbonate buffer, pH 9.6, for at least four hours at room temperature. Plates were then washed three times in PBS-T buffer (144 mM NaCl, 20 mM Na phosphate, pH 7.4, 0.05% Tween-20). Free binding sites on the well surface of the microliter plate were blocked with PBS-T for one hour at 37° C. […] Microinjected oocyte homogenates containing the enzyme were then added at a dilution of 1:20 in PBS-T or at a concentration of 100 mIU/ml in PBS-T for at least 3 hours at room temperature with agitation. Plates were washed three times with PBS-T before use. Inactivation was performed at pH 7.4 in order to facilitate comparison with similar studies in the literature.
Sequence of AChE (E6) (P22303 32-614): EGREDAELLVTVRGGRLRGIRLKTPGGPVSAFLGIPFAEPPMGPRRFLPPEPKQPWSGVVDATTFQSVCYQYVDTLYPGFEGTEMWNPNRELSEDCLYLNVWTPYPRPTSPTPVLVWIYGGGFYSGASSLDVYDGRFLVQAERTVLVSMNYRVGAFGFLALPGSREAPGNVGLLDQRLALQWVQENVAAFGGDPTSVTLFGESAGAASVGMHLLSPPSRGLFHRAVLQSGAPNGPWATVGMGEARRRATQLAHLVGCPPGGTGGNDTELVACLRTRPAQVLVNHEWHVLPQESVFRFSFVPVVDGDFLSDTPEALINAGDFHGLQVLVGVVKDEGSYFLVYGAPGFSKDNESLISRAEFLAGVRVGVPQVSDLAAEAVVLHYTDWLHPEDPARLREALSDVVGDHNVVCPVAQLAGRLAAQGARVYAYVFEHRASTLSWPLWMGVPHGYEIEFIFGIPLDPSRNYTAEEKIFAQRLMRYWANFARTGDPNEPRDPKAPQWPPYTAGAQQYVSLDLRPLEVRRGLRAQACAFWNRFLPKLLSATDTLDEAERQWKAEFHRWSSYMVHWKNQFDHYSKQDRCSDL
(§3) and 1 μM DFP. The pseudo-first order rate constant for reactivation,
(§4) ^a True first order rate constants for reactivation (kr) and […]

Another data set concerns the target AChE (E5) (Homo sapiens, UniProt P22303). The procedure:
as §2, §3, §4

Data set [5] concerns myasthenia gravis patients. Conditions: in vivo; cited from earlier work.
The target of data set [6] is T2, Rec. BuChE G/G ("atypical") (Homo sapiens, UniProt P06276, D98G).
T2 construct: made in house; host or cells: Xenopus oocytes (microinjected in vitro transcribed mRNA)
T2 sequence (P06276 29-602 D98G): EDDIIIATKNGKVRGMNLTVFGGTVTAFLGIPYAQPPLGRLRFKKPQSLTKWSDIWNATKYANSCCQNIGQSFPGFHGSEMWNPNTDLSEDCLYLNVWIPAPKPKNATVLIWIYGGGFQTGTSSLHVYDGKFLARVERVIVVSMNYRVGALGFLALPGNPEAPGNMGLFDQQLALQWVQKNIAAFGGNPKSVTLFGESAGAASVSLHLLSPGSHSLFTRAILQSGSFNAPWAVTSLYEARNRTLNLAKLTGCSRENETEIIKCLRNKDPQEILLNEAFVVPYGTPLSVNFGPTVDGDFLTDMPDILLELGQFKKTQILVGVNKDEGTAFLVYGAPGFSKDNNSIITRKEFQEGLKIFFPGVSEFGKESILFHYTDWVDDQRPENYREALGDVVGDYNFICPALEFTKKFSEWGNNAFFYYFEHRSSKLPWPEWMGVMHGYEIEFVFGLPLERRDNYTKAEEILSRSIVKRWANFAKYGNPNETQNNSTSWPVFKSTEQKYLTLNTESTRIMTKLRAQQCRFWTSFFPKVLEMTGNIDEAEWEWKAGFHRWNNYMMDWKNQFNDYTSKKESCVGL
The data set can be described thus: Inhibition by cocaine / α-solanine, recombinant G/G. Type of data set: biochemical.

For data set [7], the target named is T3, Serum BuChE G/G ("atypical") (Homo sapiens, UniProt P06276, D98G).
T3 construct: applicants prepared serum from an individual who had experienced succinylcholine-induced apnea; from tissue; host or cells: human serum, homozygous carrier of the atypical allele
T3 sequence (P06276 29-602 D98G): as above
The data set can be described thus: Inhibition by cocaine / α-solanine, serum G/G. In kind it is biochemical.

The next data set addresses T4, Rec. BuChE D/D (normal) (Homo sapiens, UniProt P06276).
T4 construct: made in house; host or cells: Xenopus oocytes (microinjected in vitro transcribed mRNA)
As to the kind of experiment: Inhibition by cocaine / α-solanine, recombinant D/D. Type of data set: biochemical.

The next data set has as its target T5, Serum BuChE D/D (normal) (Homo sapiens, UniProt P06276).
T5 construct: with enzyme from normal serum; from tissue; host or cells: human serum, normal homozygote
As to the kind of experiment: Inhibition by cocaine / α-solanine, serum D/D. Type of data set: biochemical.

Data set [8] concerns the target T6, normal BuChE (serum and recombinant) (Homo sapiens, UniProt P06276).
T6 construct: made in house; host or cells: Xenopus oocytes (recombinant) and normal human serum (native), reported together
As to the kind of experiment: Inhibition by cocaine / α-solanine, normal enzymes. Type of data set: biochemical.

The target in the next data set is T7, Rec. AChE (Homo sapiens, UniProt P22303).
T7 construct: made in house; host or cells: Xenopus oocytes (injected ACHE DNA, CMV promoter)
T7 sequence (P22303 32-614): as the sequence (P22303 32-614) above
The data set can be described thus: Inhibition by cocaine, recombinant AChE. Type of data set: biochemical.

Setting [9] is: true first order, 0.1 to 0.6 mM PAM.

T1 sequence (P06276 29-602): as the sequence (P06276 29-602 D98G) above, with G70D counted along it
Sequence of BuChE L^286 K (P06276 29-602 L314K limits assumed): as the sequence (P06276 29-602 D98G) above, with G70D, L286K counted along it
Sequence of AChE (E5) (P22303-4 with tags, fused parts or gaps limits assumed): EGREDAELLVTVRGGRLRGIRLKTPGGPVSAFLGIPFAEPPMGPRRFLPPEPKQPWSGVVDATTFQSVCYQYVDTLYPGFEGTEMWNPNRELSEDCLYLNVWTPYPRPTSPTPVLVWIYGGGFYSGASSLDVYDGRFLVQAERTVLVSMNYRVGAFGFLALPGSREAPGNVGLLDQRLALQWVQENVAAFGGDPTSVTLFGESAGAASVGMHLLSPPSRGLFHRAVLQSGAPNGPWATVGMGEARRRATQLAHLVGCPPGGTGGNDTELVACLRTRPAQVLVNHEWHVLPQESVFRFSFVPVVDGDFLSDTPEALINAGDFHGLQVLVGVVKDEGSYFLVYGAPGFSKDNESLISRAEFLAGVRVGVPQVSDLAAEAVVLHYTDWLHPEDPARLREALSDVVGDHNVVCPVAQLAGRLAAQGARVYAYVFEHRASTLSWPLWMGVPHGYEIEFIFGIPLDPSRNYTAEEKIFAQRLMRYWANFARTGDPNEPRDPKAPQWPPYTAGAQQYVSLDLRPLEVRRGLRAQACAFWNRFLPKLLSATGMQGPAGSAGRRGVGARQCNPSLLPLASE
T6 sequence (P06276 29-602): as the sequence (P06276 29-602 D98G) above, with G70D counted along it
T5 sequence (P06276 29-602): as the sequence (P06276 29-602 D98G) above, with G70D counted along it
T4 sequence (P06276 29-602): as the sequence (P06276 29-602 D98G) above, with G70D counted along it

Consider `CCN(CC)C(=O)c1cccc(C)c1` [DEET], for which, in data set [1], the “toxicity of anti-ChEs” value is given as “amplify the toxicity of anti-ChEs”.

Turning to `C[n+]1ccccc1C=NO` [PAM, Pyridine-2-aldoxime methiodide], the “k'r × 10^3” value is listed as 150 ± 30 min^-1 at DIP-BuChE (1 mM PAM, pseudo-first order); 40 ± 18 min^-1 in data set [2] (1 mM PAM, pseudo-first order); 4 ± 1 min^-1 at BuChE L^286 K (1 mM PAM, pseudo-first order); 8 ± 1 min^-1 in the data set on BuChE F^329 D; 44 ± 15 min^-1 with BuChE F^329 Q; 4 ± 1 min^-1 in [3] (1 mM PAM, pseudo-first order). The “k'r × 10^3” value in the data set with BuChE L^286 D turned out to be 120 ± 30 min^-1; with BuChE S^425 P, 134 ± 8 min^-1; with BuChE F^329 R, 43 min^-1; with BuChE D^70 G + Y^114 H it was 12 ± 5 min^-1; with BuChE L^286 R, 6 ± 3 min^-1; in the data set with BuChE F^329 C, 14 ± 2 min^-1. Besides, the “k'r × 10^3” value is 120 ± 20 min^-1 in the data set on BuChE L^286 Q; 32 ± 4 min^-1 in the data set on BuChE D^70 G (1 mM PAM, pseudo-first order); 11 min^-1 with BuChE D^70 G + S^425 P; 6 ± 2 min^-1 on AChE (E6) (1 mM PAM, pseudo-first order); 8 ± 3 min^-1 on AChE (E5) (1 mM PAM, pseudo-first order). The “pseudo-first order reactivation rate constant higher than for either form of AChE” value on DIP-BuChE (DFP-inhibited BuChE) turned out to be 25 fold. The “kr × 10^3” value on DIP-BuChE (setting [9]) was 220 ± 60 min^-1; in data set [2] (setting [9]), 48 ± 20 min^-1; on BuChE L^286 K (setting [9]), 35 ± 27 min^-1; at AChE (E6) (setting [9]), 7 ± 3 min^-1; on AChE (E5) (setting [9]) it was 10 ± 5 min^-1. Moreover, in [2] (chimera), the “reactivation rate constant lower than native BuChE” value is listed as 5 fold. The “reduction in the pseudo-first order rate constant for reactivation” value on BuChE L^286 K (L^286 K) is 40 fold. Also, the “decrease in the rate of reactivation” value in data set [3] (all three mutations) turned out to be 40 fold. In addition, in the data set with BuChE D^70 G (D^70 G, DFP-inactivated), the “reactivation rate lower than wild-type” value was determined as 5 fold. In addition, in data set [4], the “rate of reactivation lower than wild type” value was not above 40 fold.

Turning to `CC[N+](C)(C)c1cccc(O)c1` [edrophonium], the relief of symptoms result in [5] is on record as “immediate, but brief, relief of the characteristic symptoms”.

For the compound `COC(=O)[C@H]1[C@@H](OC(=O)c2ccccc2)C[C@@H]2CC[C@H]1N2C` [cocaine], the IC50 in data set [6] is 4050 ± 50 µM; in [7], 5200 ± 300 µM; at Rec. BuChE D/D (normal) it was 280 ± 20 µM; against Serum BuChE D/D (normal) it was 320 ± 80 µM; in [8] it was 300 µM; on Rec. AChE it was 3450 ± 2150 µM.
